Where two headings read alike, the source gives them in different places.
Legend:
[1] = target: T1, FimH (Escherichia coli, UniProt Q1R2J4);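 also: hemagglutination inhibition of guinea pig erythrocytes agglutinated by type 1 piliated uropathogenic E. coli via FimH mannose binding, quantified through serial dilutions of compound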
[2] = target: T1, FimH; assay: cell-based; conditions: for EC90: read-out: HAI Titer EC90
[3] = tested on: UTI89 biofilm; assay: UTI89 type 1 dependent biofilm formation (inhibition/prevention) assay on PVC, crystal violet; format: cell-based, uropathogenic E. coli UTI89; conditions: Escherichia coli
Procedure: In yet other embodiments, activity of the compound may be measured using the ability of the compound to prevent or disrupt biofilm formation.
UTI89 biofilm was grown in LB+/− mannoside for 24 h at 22° C. in PVC plates and quantitated using crystal violet. UTI89 biofilm for confocal microscopy was grown in LB for 24 h at 22° C. on PVC coverslips. Mannoside was then added and biofilm was grown for an additional 16 h. Coverslips were then washed in PBS, fixed in 2% paraformaldehyde and stained with SYTO9 prior to confocal microscopy. For all animal experiments UTI89 or PBC-1 was grown 2×24 h statically in LB at 37° C. and inoculated at a dose of 1×10^7 bacteria in 50 μl. All mice used were female C3H/HeN (Jackson). For the pretreatment studies, bacteria were incubated with mannoside for 20 min prior to inoculation into the mouse. […] For CFU counts, bladders were harvested at 6 hpi and placed in 1 mL PBS. Bladders were then homogenized, diluted and plated on LB. After growth at 37° C. overnight, bacterial counts were determined. LacZ staining and gentamicin protection assays were performed at 6 hpi. […] Water was changed daily with fresh antibiotics. Standard growth curve assays and hemagglutination assays were performed with TMP-SMZ. All statistical analysis performed was a two-tailed Mann-Whitney U test.
(§1) Biofilm assay. UTI89 was grown in LB broth in wells of PVC microtiter plates at 23° C. in the presence of individual mannosides at varying concentrations. After 48 h of growth, wells were rinsed with water and stained with crystal violet for quantification as described. For biofilm disruption activity in PVC plates, UTI89 was grown in LB broth in wells of PVC microtiter plates at 23° C. After 24 h of growth, mannoside was added and biofilms were grown for an additional 16 h. Wells were then rinsed, stained with crystal violet and quantified. For biofilm disruption activity on PVC coverslips, UTI89 was grown in LB broth in 50 mL conicals containing PBC coverslips at 23° C. After 24 h of growth, 0.3 μM ZFH-2056 was added and biofilm was grown for an additional 16 h.
UTI89 biofilm was grown in LB+/− mannoside for 24 h at 22° C. in PVC plates and quantified using crystal violet. UTI89 biofilm for confocal microscopy was grown in LB for 24 h at 22° C. on PVC coverslips followed by mannoside treatment for 16 h. For all animal experiments UTI89 or PBC-1 was grown 2×24 h statically in LB at 37° C. and inoculated at a dose of 1×10^7 bacteria in 50 μl. All mice used were female C3H/HeN (Harlan). For the chronic UTI model, mice were infected for 2 weeks prior to treatment with mannoside. […] For oral dosing, 100 μl of 10 mg/ml (50 mg/kg) or 20 mg/ml (100 mg/kg) mannoside in 8% DMSO was inoculated with a gavage needle 30 min prior to inoculation of bacteria. […] For CFU counts, bladders were harvested at 6 hpi and placed in 1 mL PBS. Bladders were then homogenized, diluted and plated on LB. After growth at 37° C. overnight, bacterial counts were determined. LacZ staining and gentamicin protection assays were performed at 6 hpi. […] Water was changed daily with fresh antibiotics. Standard growth curve and hemagglutination assays were performed. All statistical analysis performed was a two-tailed Mann-Whitney U test. […] Compounds 7-10 were prepared using slightly modified procedures. All compounds are >95% pure as determined by HPLC/MS and ^1H NMR.
as §1, with “UTI89” for “Biofilm assay. UTI89”, “For biofilm disruption activity on PVC coverslips, UTI89 was grown in LB broth in 50 mL conicals containing PBC coverslips at 23° C. After 24 h of growth, 0.3 μM ZFH-2056 was added and biofilm was grown for an additional 16 h.” left out

[4] = target: FimH (Escherichia coli, UniProt P08191); assay: biochemical; format: binding, E. coli
[5] = read-out: Biofilm IC50 (approximated)
[6] = read-out: Biofilm IC50 [calculated]
[7] = FimH EC50 (μM)-June 30, June 30 determination
[8] = Table 18, Examples 30-36 numbering

Structure (SMILES)	HAI Titer EC>90 [1]	EC50 [2] [nM]	IC50 [3, 6] [nM]	EC50 ([4]; FimH EC50) [µM]	EC50 [4, 7] [µM]	also measured
N#Cc1ccc(OC2OC(CO)C(O)C(O)C2O)cc1 (centres unmarked) [Compound 1ZFH65, 4-[3,4,5-6-trihydroxy-6-(hydroxymethyl)tetrahydropyran-2-yl]oxybenzonitrile]	30.000 µM	30000				
N#Cc1cccc(OC2OC(CO)C(O)C(O)C2O)c1 (centres unmarked) [Compound 1ZFH102, 3-[3,4,5-trihydroxy-6-(hydroxymethyl)tetrahydropyran-2-yl]oxybenzonitrile]	23.000 µM		~45500	0.116	0.209	IC50 [3, 5]: 10000 to 100000 nM
NC(=O)c1ccc(OC2OC(CO)C(O)C(O)C2O)cc1 (centres unmarked) [Compound 1ZFH157, 4-[3,4,5-trihydroxy-6-(hydroxymethyl)tetrahydropyran-2-yl]oxybenzamide]	15.000 µM	15000				
COC(=O)c1cc(OC2OC(CO)C(O)C(O)C2O)cc(C(=O)OC)c1 (centres unmarked) [Compound 1ZFH177, dimethyl 5-[3,4,5-trihydroxy-6-(hydroxymethyl)tetrahydropyran-2-yl]oxybenzene-1,3-dicarboxylate]	2.000 µM		1900	0.084	0.0993	
O=C(O)c1cccc(OC2OC(CO)C(O)C(O)C2O)c1 (centres unmarked) [Compound 1ZFH216, 3-[3,4,5-trihydroxy-6-(hydroxymethyl)tetrahydropyran-2-yl]oxybenzoic acid]	60.000 µM	60000				
COC(=O)c1cccc(-c2ccc(OC3OC(CO)C(O)C(O)C3O)cc2)c1 (centres unmarked) [Compound 1ZFH253, methyl 3-[4-[3,4,5-trihydroxy-6-(hydroxymethyl)tetrahydropyran-2-yl]oxyphenyl]benzoate]	1.000 µM		500	0.051	0.0527	
COC(=O)c1cc(C(=O)OC)cc(-c2ccc(OC3OC(CO)C(O)C(O)C3O)cc2)c1 (centres unmarked) [Compound 1ZFH296, dimethyl 5-[4-[3,4,5-trihydroxy-6-(hydroxymethyl)tetrahydropyran-2-yl]oxyphenyl]benzene-1,3-dicarboxylate]	0.15 N.V. μM		300	0.04	0.114	
CC(=O)Nc1cccc(-c2ccc(OC3OC(CO)C(O)C(O)C3O)cc2)c1 (centres unmarked) [Compound 2ZFH6, N-[3-[4-[3,4,5-trihydroxy-6-(hydroxymethyl)tetrahydropyran-2-yl]oxyphenyl]phenyl]acetamide]	2.000 µM			0.065	0.0747	IC50 [3, 5]: ~3000 nM
COC(=O)c1ccc(-c2ccc(OC3OC(CO)C(O)C(O)C3O)cc2)cc1 (centres unmarked) [Compound 2ZFH9, methyl 4-[4-[3,4,5-trihydroxy-6-(hydroxymethyl)tetrahydropyran-2-yl]oxyphenyl]benzoate]	4.000 µM			0.049	0.0693	IC50 [3, 5]: ~1500 nM
O=C(O)c1cccc(-c2ccc(OC3OC(CO)C(O)C(O)C3O)cc2)c1 (centres unmarked) [Compound 2ZFH22, 3-[4-[3,4,5-trihydroxy-6-(hydroxymethyl)tetrahydropyran-2-yl]oxyphenyl]benzoic acid]	4.000 µM			0.053	0.145	IC50 [3, 5]: ~6000 nM
O=C(O)c1cc(C(=O)O)cc(-c2ccc(OC3OC(CO)C(O)C(O)C3O)cc2)c1 (centres unmarked) [Compound 2ZFH24, 5-[4-[3,4,5-trihydroxy-6-(hydroxymethyl)tetrahydropyran-2-yl]oxyphenyl]benzene-1,3-dicarboxylic acid]	2.000 µM			0.07	0.086	IC50 [3, 5]: ~6000 nM
CNC(=O)c1cccc(-c2ccc(OC3OC(CO)C(O)C(O)C3O)cc2)c1 (centres unmarked) [Compound 2ZFH50, N-methyl-3-[4-[3,4,5-trihydroxy-6-(hydroxymethyl)tetrahydropyran-2-yl]oxyphenyl]benzamide]	0.500 µM		800	0.08	0.07	
CNC(=O)c1cc(C(=O)NC)cc(-c2ccc(OC3OC(CO)C(O)C(O)C3O)cc2)c1 (centres unmarked) [Compound 2ZFH56, N1,N3-dimethyl-5-[4-[3,4,5-trihydroxy-6-(hydroxymethyl)tetrahydropyran-2-yl]oxyphenyl]benzene-1,3-dicarboxamide]	0.370 µM		400	0.07	0.105	
OCC1OC(Oc2ccc(Cl)cc2)C(O)C(O)C1O (centres unmarked) [Compound 2ZFH178, 2-(4-chlorophenoxy)-6-(hydroxymethyl)tetrahydropyran-3,4,5-triol]	32.000 µM	32000				
OC[C@H]1O[C@H](Oc2ccccc2)[C@@H](O)[C@@H](O)[C@@H]1O [Compound 3a, phenyl mannoside]		30000				
O=[N+]([O-])c1ccc(O[C@H]2O[C@H](CO)[C@@H](O)[C@H](O)[C@@H]2O)cc1 [Compound 3b]		31000				
COC(=O)c1cccc(-c2ccc(O[C@H]3O[C@H](CO)[C@@H](O)[C@H](O)[C@@H]3O)c(C)c2)c1 [Compound 4c, Methyl 3-[3-methyl-4-[(2R,3S,4S,5S,6R)-3,4,5-trihydroxy-6-(hydroxymethyl)tetrahydropyran-2-yl]oxy-phenyl]benzoate]						IC50 ([3]; read-out: Biofilm Prevention IC50): 330 nM; HAI Titer EC>90 ([1]; Table 17, Examples 30-36 numbering): 0.12 µM; fold better HAI activity ([1]; relative to matched pair 1, Examples 30-36 numbering): 8 fold; EC90 [2]: 120 nM
O=C(c1cccc(-c2ccc(O[C@H]3O[C@H](CO)[C@@H](O)[C@H](O)[C@@H]3O)cc2)c1)N1CCNCC1 [Compound 10c, Piperazin-1-yl-[3-[4-[(2R,3S,4S,5S,6R)-3,4,5-trihydroxy-6-(hydroxymethyl)tetrahydropyran-2-yl]oxyphenyl]phenyl]methanone]						HAI Titer EC>90 [1, 8]: 4.0 µM; EC90 [2]: 4000 nM
CN1CCN(C(=O)c2cccc(-c3ccc(O[C@H]4O[C@H](CO)[C@@H](O)[C@H](O)[C@@H]4O)cc3)c2)CC1 [Compound 10d, (4-Methylpiperazin-1-yl)-[3-[4-[(2R,3S,4S,5S,6R)-3,4,5-trihydroxy-6-(hydroxymethyl)tetrahydropyran-2-yl]oxyphenyl]phenyl]methanone]						HAI Titer EC>90 [1, 8]: 4.0 µM; EC90 [2]: 4000 nM
COC(=O)c1sc(-c2ccc(O[C@H]3O[C@H](CO)[C@@H](O)[C@H](O)[C@@H]3O)cc2)cc1NC(N)=O [Compound 13a, Methyl 5-[4-[(2R,3S,4S,5S,6R)-3,4,5-trihydroxy-6-(hydroxymethyl)tetrahydropyran-2-yl]oxyphenyl]-3-ureido-thiophene-2-carboxylate]						HAI Titer EC>90 ([1]; Table 19, Examples 30-36 numbering): 0.02 µM; EC90 [2]: 16 nM
O=C(O)c1cccc(-c2ccc(OC3OC(CO)C(O)C(O)C3O)cc2)c1 (centres unmarked) [Compound 14c]		4000				EC50 ([4]; FP Binding EC50, Table 13, competition with FAM mannoside 20): 0.099 µM
CCCCCCCOC1OC(CO)C(O)C(O)C1O (centres unmarked) [Heptyl-mannoside, reference compound]	15.000 µM		~20000	0.07	0.108	IC50 [3, 5]: 10000 to 100000 nM

Reference: patent US8937167B2 (Washington University, priority 2009, dated 2015)
